This note sets out measurements from patent publication EP2769738B1, “Conjugated TLR7 and/or TLR8 and TLR2 polycationic agonists” (Invivogen, priority 2013, dated 2014).

Several values for one entry are separate records, joined by “and”; a condition that tells them apart may be missing. Equal values may be shown once.

The test system of data set [1] is endogenous TLR2 and TLR7 in RAW-Blue™ Cells. In words: RAW-Blue Cells NF-κB/AP-1 SEAP reporter assay (endogenous receptors). Format: cell-based, mouse. Particulars: Figure 4; 10 µg/mL to 10 pg/ml, 24 hours, SEAP read as OD at 655 nm. The protocol:
Cell-based assays were carried out using TLR7 and TLR2 reporter cell lines (InvivoGen). The reporter cell lines are engineered HEK293 cells, a human embryonic kidney cell line (ATCC, CRL-1573) that stably express either murine TLR7 (HEK-Blue™ mTLR7) or human TLR7 (HEK-Blue™ hTLR7) or human TLR2 (HEK- Blue™ hTLR2) with an NF-κB-inducible secreted embryonic alkaline phosphatase (SEAP) as the reporter gene. The SEAP reporter gene is under the control of the NF-κB and AP-1-inducible promoter, which, upon treatment with a corresponding TLR ligand and activation of NF-κB and AP-1, induces the production of SEAP. Detection of SEAP is measured following culturing cells in HEK-Blue™ Detection media (InvivoGen). HEK-Blue™ Detection contains a SEAP substrate that when hydrolysed by SEAP produces a colorimetric change allowing for detection of SEAP as the protein is secreted. […] These assays were carried out using RAW-Blue™ Cells (InvivoGen), derived from RAW 264.7 mouse leukemic monocyte macrophage cell line (ATCC, CRL 2278) stably overexpressing a NF-κB /AP-1 inducible SEAP reporter constructs.
To perform the assay, cells were seeded on 96 well microliter plates at 50,000 or 100,000 cells per well for HEK-Blue™ Cells and RAW-Blue™ Cells respectively, and cultured at 37 °C in the presence of the conjugated compounds The TLR7-TLR2 polyamine molecules were prepared as follows: First, stock solutions of the conjugated compounds of the invention were prepared in ethanol or water to a concentration of 10 mg/ml.
The working dilutions of the conjugated TLR7-TLR2 polyamine agonists made up in water or PBS were directly added to the reporter cell lines at a final concentration ranging from 10 µg/mL to 10 pg/ml and incubated at 37 °C for 24 hours. After 24 hours of incubation, the effect on reporter gene activity was determined by reading the OD at 655 nm using iMark™ Microplate Reader (BIO-RAD).
A general note: Reporter assays use an easily measured gene product as a stand-in for the process of interest.

Data set [2] in a line: Determination of nanoparticle (lipoplex) size by dynamic light scattering. In kind it is physicochemical. Particulars: ratio 3:24 (w:w); for Conformity (C)/ Non-conformity (NC) / Mean Diameter (nm): complexes with pDNA; for Mean Diameter (nm): dynamic light scattering at 25°C; for Mean Diameter (nm) / PDI: triplicate measurements; for PDI: polydispersity index of complexes with pDNA, 25°C. On the procedure:
• 1. Preparative HPLC Method: Unless otherwise indicated, the compounds described herein were purified by RP-MPLC ARMEN® Spot Flash Liquid Chromatography (ARMEN Instrument, Saint Ave, France) on a preparative column (SVF D26) packed with 25-40 µm C18 resin (Merck chimie SAS), by applying a linear gradient of 0-10% MeCN in NH4OAc (10 mM) solution (pH = 9) over 60 min at a 15 mL/min flow rate. The purification was monitored at 254 nm. Suitable fractions were pooled and lyophilised. • 2. Proton NMR Spectra: Unless otherwise indicated, all ^1H NMR spectra were run on a Bruker series 300 MHz instrument. Where so characterized, all observed protons are reported as parts-per-million (ppm) downfield from tetramethylsilane (TMS) or other internal reference in the appropriate solvent indicated. NMR spectra were recorded on a Brucker 300 spectrometer. For ^1H (300 MHz) spectra δ values were referenced to CDCI3-d1 (7.26 ppm), DMSO- d6 (2.50 ppm), D2O-d2 (4.79 ppm) or MeOD-d4 (3.31 ppm). The peak patterns are indicated as follows: s: singlet, sl: large singlet, d: doublet, t: triplet, q: quartet, m: multiplet. • 3. Mass Spectra (MS): Analyses were run on an Agilent Model 6130 quadrupole MS. Unless otherwise indicated, all mass spectral data for starting materials, intermediates and/or exemplary compounds are reported as mass/charge (m/z), having an (M+H)^+ molecular ion. The molecular ion reported was obtained by electrospray detection method (commonly referred to as an ESI MS). Compounds having an isotopic atom, such as bromine and the like, are generally reported according to the detected isotopic pattern, as appreciated by those skilled in the art. • 4. Particle size: Particle size was determined using a Malvern Nanosizer (Malvern, Worcestershire, UK) and Malvern ZETASIZER.RTM. (Malvern, Worcestershire, UK). • 5. Naming Convention The compounds disclosed and described herein have been named using the naming convention provided with Chem-Draw Ultra 11.0 software, available in Chem. Office. In some instances, compounds were named with the term "spermine" inserted where appropriate. For example, where the spermine is substituted with Boc, "N1,N5,N10-TriBoc-spermine" is added to the Chem-Draw nomenclature in the appropriate place. Chem-Draw utilizes the ISIS Draw software compound naming convention, as appreciated by those skilled in the art.
For pDNA:TLR7-TLR2 polyamine molecules complexes, a ratio pDNA:TLR7-TLR2 polyamine molecules of 3:24 (w:w) was prepared in serum-free culture medium or in 5% glucose. The TLR7-TLR2 conjugated compound of interest was prediluted in serum-free culture medium or in 5% glucose and incubated for 5 minutes at room temperature, prior to the addition of an endotoxin-free, salt-free preparation of pDNA. In these experiments, the pBsr2pCpGLacZh plasmid was used in the pDNA:TLR7-TLR2 polyamine molecule complexes. The pDNA:TLR7-TLR2 polyamine molecule mixtures were incubated at room temperature for 30 minutes to allow the formation of the complex. The control used in these experiments was the cationic lipid transfection agent LyoVec™ (InvivoGen) prepared in a similar manner.
In order to confirm that TLR7-TLR2 polyamine molecules complex DNA, lipoplex size was determined. The physical characterization of complex was achieved by dynamic light scattering using the analytical equipment for laser diffraction Zetasizer Nano-ZS (Malvern). pDNA:TLR7-TLR2 polyamine molecule complexes were prepared as described above. Subsequently, 50µl of pDNA: TLR7-TLR2 polyamine molecule complexes were placed into a disposable sizing cuvette and measurements were made under conditions defined according to manufacturer's instructions. The measurements were made at 25°C in triplicate and a size distribution report was obtained. […]

For `CCCCCCCCCCCCCCCC(=O)OCC(CSC[C@H](N)C(=O)N[C@@H](CCCCNC(=O)CNC(=O)c1ccc(Cn2c(O)nc3c(N)nc(NCCCC)nc32)cc1)C(=O)NCCCNCCCCNCCCN)OC(=O)CCCCCCCCCCCCCCC` (stereo partly drawn) [CL475, (6R,9S)-6,23-diamino-9-(4-(2-(4-((6-amino-2-(butylamino)-8-hydroxy-9H-purin-9-yl)methyl)benzamido)acetamido)butyl)-7,10-dioxo-4-thia-8,11,15,20-tetraazatrico sane-1,2-diyl dipalmitate], the “ability to activate endogenous TLR2 and TLR7 in RAW-Blue™ Cells” value (shortened to “ability”) in data set [1] was “activate endogenous TLR2 and TLR7”. Further, in data set [2], the “Conformity (C)/ Non-conformity (NC)” value was “C (ranged between 140 and 200 nm in diameter were considered to show conformity)”; the “Mean Diameter (nm)” value is 145,9 nm and 155,8 nm and 153,5 nm; the PDI was 0,193 and 0,176 and 0,158.

Consider `CCCCCCCCCCCCCCCC(=O)OCC(CSC[C@H](N)C(=O)NCCCC[C@H](NC(=O)c1ccc(Cn2c(O)nc3c(N)nc(NCCCC)nc32)cc1)C(=O)NCCCNCCCCNCCCN)OC(=O)CCCCCCCCCCCCCCC` (stereo partly drawn) [CL486, (6R,13S)-6,27-diamino-13-(4-((6-amino-2-(butylamino)-8-hydroxy-9H-purin-9-yl)methyl)benzamido)-7,14-dioxo-4-thia-8,15,19,24-tetraazaheptacosane-1,2-diyl dipalmitate], for which the “ability” value in data set [1] was “activate endogenous TLR2 and TLR7”. For the same molecule, in data set [2], the “Conformity (C)/ Non-conformity (NC)” value was “C (ranged between 140 and 200 nm in diameter were considered to show conformity)”; the “Mean Diameter (nm)” value is 209,2 nm and 179,7 nm and 202,0 nm; the PDI is 0,236 and 0,232 and 0,234.

For `CCCCCCCCCCCCCCCC(=O)OCC(CSC[C@H](N)C(=O)NCCCC[C@H](NC(=O)CNC(=O)c1ccc(Cn2c(O)nc3c(N)nc(NCCCC)nc32)cc1)C(=O)NCCCNCCCCNCCCN)OC(=O)CCCCCCCCCCCCCCC` (stereo partly drawn) [CL487, (6R,13S)-6,27-diamino-13-(2-(4-((6-amino-2-(butylamino)-8-hydroxy-9H-purin-9-yl)methyl)benzamido)acetamido)-7,14-dioxo-4-thia-8,15,19,24-tetraazaheptacosane-1,2-diyl dipalmitate], the “ability” value in data set [1] is “activate endogenous TLR2 and TLR7”. Besides, in data set [2], the “Conformity (C)/ Non-conformity (NC)” value was “C (ranged between 140 and 200 nm in diameter were considered to show conformity)”; the “Mean Diameter (nm)” value was 148,1 nm and 165,6 nm and 160,0 nm; the PDI was 0,23 and 0,255 and 0,241.

Turning to `CCCCCCCCCCCCCCCC(=O)OCC(CSC[C@H](N)C(=O)N[C@@H](COC(=O)c1ccc(Cn2c(O)nc3c(N)nc(NCCCC)nc32)cc1)C(=O)NCCCNCCCCNCCCN)OC(=O)CCCCCCCCCCCCCCC` (stereo partly drawn) [CL514, (6R,9S)-6,23-diamino-9-((4-((6-amino-2-(butylamino)-8-hydroxy-9H-purin-9-yl)methyl)benzoyloxy)methyl)-7,10-dioxo-4-thia-8,11,15,20-tetraazatricosane-1,2-diyl dipalmitate], in data set [1], the “ability” value is “activate endogenous TLR2 and TLR7”. Besides, in data set [2], the “Conformity (C)/ Non-conformity (NC)” value was “C (ranged between 140 and 200 nm in diameter were considered to show conformity)”; the “Mean Diameter (nm)” value was 249,1 nm and 309,6 nm and 258,3 nm; the PDI was 0,303 and 0,354 and 0,372.

With `CCCCCCCCCCCCCCCC(=O)OCC(CSC[C@H](N)C(=O)N[C@@H](CCC(=O)NCCCNCCCCNCCCN)C(=O)Nc1ccc(Cn2c(O)nc3c(N)nc(NCCCC)nc32)cc1)OC(=O)CCCCCCCCCCCCCCC` (stereo partly drawn) [CL527, (6R,9S)-6,25-diamino-9-(4-((6-amino-2-(butylamino)-8-hydroxy-9H-purin-9-yl)methyl)phenylcarbamoyl)-7,12-dioxo-4-thia-8,13,17,22-tetraazapentacosane-1,2-diyl dipalmitate], in data set [1], the “ability” value is “activate endogenous TLR2 and TLR7”. In data set [2], the “Conformity (C)/ Non-conformity (NC)” value is “C (ranged between 140 and 200 nm in diameter were considered to show conformity)”; the “Mean Diameter (nm)” value was 175,1 nm and 156,9 nm and 168,3 nm; the PDI was 0,253 and 0,239 and 0,258.

Consider `CCCCCCCCCCCCCCCC(=O)OCC(CSC[C@H](N)C(=O)NCCCNCCCCNCCCNC(=O)CNC(=O)c1ccc(Cn2c(O)nc3c(N)nc(NCCCC)nc32)cc1)OC(=O)CCCCCCCCCCCCCCC` (stereo partly drawn) [CL553, (20R)-20-amino-1-(4-((6-amino-2-(butylamino)-8-hydroxy-9H-purin-9-yl)methyl)phenyl)-1,4,19-trioxo-22-thia-2,5,9,14,18-pentaazapentacosane-24,25-diyl dipalmitate], for which the “ability” value in data set [1] is “activate endogenous TLR2 and TLR7”. In addition, in data set [2], the “Conformity (C)/ Non-conformity (NC)” value is “C (ranged between 140 and 200 nm in diameter were considered to show conformity)”; the “Mean Diameter (nm)” value was 170.0 nm and 190.0 nm and 180,2 nm; the PDI is 0,226 and 0,230 and 0,237.
